The source of these data is PubChem BioAssay (NCI).

Molecules are shown by their SMILES.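 Cultured in 96-well plates, cells were exposed to test compound for 48 hours across five concentrations. TGI: total growth inhibition.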 Bounds are passed on as bounds.

Holding throughout (experiment): inhibition of tumour cell growth, NCI panel, 48 h
Assay [1] concerns SR leukemia.
Assay [2] concerns MOLT-4 leukemia.
The subject of assay [3] is NCI-H226 lung.
For assay [4], the system named is RPMI-8226 leukemia.
The test system of assay [5] is MCF7 breast.
Assay [6] has as its system RXF 393 renal.
For assay [7], the system named is HT29 colon.
Assay [8] deals with CAKI-1 renal.
Assay [9] concerns SK-MEL-2 melanoma.
The test system of assay [10] is OVCAR-8 ovarian.

Turning to `Cc1ccc(NC(=O)c2ccc(OP(=O)(O)Nc3ccc(C)cc3)cc2)cc1`, the TGI in assay [1], in [2], in assay [3], in [4], in [5] and in [6] was greater than 100 µM throughout. For the same molecule, the TGI in assay [7], in assay [8], in assay [9] and in assay [10] was greater than 100 µM throughout.
As for `S=C(N/N=C(/c1ccccc1)c1ccccn1)N(Cc1ccccn1)Cc1ccccn1`, the TGI in assay [1] was determined as 43.5 µM; in [2], 16.1 µM; in [3], 0.433 µM; in [4] it was 3.38 µM; in assay [5] it was 5.02 µM; in [6], 2.74 µM. The TGI in [7] amounted to 2.09 µM; in assay [8], 1.42 µM; in assay [9], 3.04 µM; in assay [10], 1.13 µM.
Turning to `CCN(CC)CCNC(=O)c1cc2cc(NC(=O)c3cc4cc([N+](=O)[O-])ccc4[nH]3)ccc2[nH]1`, the TGI was greater than 100 µM in [1]; greater than 100 µM in assay [2]; greater than 87.3 µM in assay [3]; 9.63 µM in assay [4]; greater than 100 µM in assay [5]; greater than 100 µM in assay [6]. Also, the TGI in assay [7], in [8], in assay [9] and in [10] was greater than 100 µM throughout.
`Cc1cccc(Cn2c3c(c4cc(O)ccc42)C(=O)c2ccccc2C3=O)c1`: the TGI in assay [1] was greater than 100 µM; in assay [2], greater than 100 µM; in assay [3], greater than 100 µM; in [4], greater than 30.6 µM; in [5], 98.1 µM; in assay [6] it was 21.2 µM. The TGI in assay [7] was greater than 100 µM; in assay [8] it was greater than 100 µM; in assay [9], greater than 100 µM; in assay [10], greater than 93.2 µM.
For the molecule `CCCCCC1=CC(=O)C1(Cl)Cl`, the TGI in assay [1] was determined as 19.4 µM; in assay [2], 15.3 µM; in assay [3], 41.5 µM; in [4] it was 7.87 µM; in assay [5], 31.6 µM; in assay [6], 35.3 µM. Moreover, the TGI is 36.7 µM in assay [7], 23.3 µM in assay [8], 47.7 µM in assay [9] and 34 µM in [10].
Consider `C[C@]12CC[C@H](O)CC1=CC[C@@H]1[C@@H]2CC[C@]2(C)C(=N/N)/C(=N\O)C[C@@H]12`, for which the TGI in assay [1], in assay [2], in assay [3], in assay [4], in [5] and in assay [6] was greater than 100 µM throughout. The TGI in assay [7], in assay [8], in [9] and in [10] was greater than 100 µM each time.
For the molecule `Nc1nccc(-c2c[nH]c3cc(Br)ccc23)n1`, the TGI in assay [1] was 46.7 µM; in [2], 61.8 µM; in assay [3] it was greater than 100 µM; in [4], 49.5 µM; in assay [5], greater than 100 µM; in assay [6], 49.3 µM. For the same molecule, the TGI was 44.7 µM in assay [7], 35 µM in [8], 47.2 µM in assay [9] and greater than 100 µM in [10].
`CC(=O)Nn1c(=S)[nH]c2ccccc21`: the TGI in [1], in assay [2], in assay [3], in assay [4], in [5] and in [6] was greater than 100 µM each time. For the same molecule, the TGI in assay [7], in assay [8], in assay [9] and in assay [10] was greater than 100 µM in each case.
Turning to `CC1(C)O[C@H]2OC(CO[Si](C)(C)C(C)(C)C)C(N=[N+]=[N-])[C@H]2O1` (stereo not given in full), the TGI was 32.2 µM in assay [1]; 33.9 µM in assay [2]; 38.7 µM in [3]; 28.8 µM in assay [4]; 36.8 µM in assay [5]; 32.6 µM in [6]. Also, the TGI in assay [7] came out at 25.5 µM; in assay [8] it was 42.5 µM; in [9], 32 µM; in assay [10], 38.1 µM.
Consider `Cc1ccnc(NS(=O)(=O)c2ccc(N=[N+]=[N-])cc2)n1`, for which the TGI was greater than 100 µM in assay [1]; greater than 60.4 µM in assay [2]; greater than 100 µM in [3]; greater than 100 µM in assay [4]; greater than 100 µM in assay [5]; greater than 100 µM in assay [6]. Besides, the TGI in assay [7], in [8], in [9] and in assay [10] was greater than 100 µM in each case.
Consider `N=c1nnc2ccc(Cl)cc2n1O`, for which the TGI in [1] is greater than 100 µM; in assay [2] it was greater than 100 µM; in [3], greater than 100 µM; in [4], greater than 100 µM; in assay [5], greater than 100 µM; in [6], 95.2 µM. For the same molecule, the TGI is greater than 100 µM in assay [7], greater than 100 µM in [8], greater than 100 µM in assay [9] and 92.4 µM in assay [10].
Take `COc1nncc2[nH]c(-c3ccccc3)cc12`: the TGI is greater than 100 µM in assay [1]; 18.1 µM in assay [2]; greater than 100 µM in assay [3]; greater than 100 µM in assay [4]; greater than 100 µM in assay [5]; greater than 100 µM in assay [6]. Further, the TGI in [7], in assay [8], in assay [9] and in [10] was greater than 100 µM each time.
Take `C=C1CCN2CC[C@@H](OC(=O)/C(C)=C\C)[C@@H]12`: the TGI in assay [1], in assay [2], in assay [3], in assay [4], in assay [5] and in assay [6] was greater than 100 µM throughout. Also, the TGI in assay [7], in assay [8], in assay [9] and in assay [10] was greater than 100 µM each time.
For the molecule `COc1ccc(-n2c(C)nc3ccc(NC(=S)Nc4ccccc4)cc3c2=O)cc1`, the TGI in assay [1] was greater than 100 µM; in [2], 99.8 µM; in [3] it was greater than 100 µM; in assay [4], greater than 100 µM; in assay [5] it was greater than 100 µM; in assay [6] it was greater than 100 µM. Also, the TGI in [7], in [8], in [9] and in assay [10] was greater than 100 µM each time.
Regarding `CN(C)CCNS(=O)(=O)c1ccc(N)cc1`, the TGI in [1], in assay [2], in assay [3], in assay [4], in assay [5] and in assay [6] was greater than 100 µM each time. The TGI was greater than 100 µM in assay [7], greater than 100 µM in assay [8], 31.9 µM in [9] and greater than 100 µM in assay [10].
Regarding `Cc1ccccc1OC(C)C(=O)NN1C(=O)CSC1c1ccccc1` (stereo not given), the TGI in assay [1] is 48.8 µM; in assay [2], 25.3 µM; in [3], greater than 100 µM; in assay [4] it was greater than 100 µM; in [5], greater than 100 µM; in assay [6] it was greater than 100 µM. Further, the TGI in [7], in assay [8], in [9] and in assay [10] was greater than 100 µM each time.
On to `COP(=O)(OC)C1=c2c(C)noc2=C2C=COC2C1=O` (stereo not given), for which the TGI in assay [1], in assay [2], in assay [3], in assay [4], in [5] and in assay [6] was greater than 100 µM throughout. For the same molecule, the TGI in assay [7], in [8], in assay [9] and in assay [10] was greater than 100 µM each time.
Regarding `CCOC(=O)N1CCN(Cc2cc(=O)n3ccc(C)cc3n2)CC1`, the TGI in assay [1], in assay [2], in [3], in assay [4], in assay [5] and in assay [6] was greater than 100 µM in each case. The TGI in assay [7], in [8], in assay [9] and in [10] was greater than 100 µM each time.
Regarding `NS(=O)(=O)c1nnc(NC(=O)Nc2ccc(Cl)c(Cl)c2)s1`, the TGI in assay [1] amounted to 60.6 µM; in assay [2] it was 84.2 µM; in assay [3] it was 65.8 µM; in [4], 51.5 µM; in assay [5], 88.3 µM; in assay [6], 35.3 µM. The TGI was 37.9 µM in [7], 78.8 µM in [8], 74.2 µM in [9] and 49.9 µM in assay [10].
For the molecule `Cc1cc(C)nc(NS(=O)(=O)c2ccc(NC(=O)c3ccc4nc5ccccc5c(Nc5ccc(S(N)(=O)=O)cc5)c4c3)cc2)n1`, the TGI in assay [1], in assay [2], in [3], in assay [4], in assay [5] and in [6] was greater than 100 µM each time. Moreover, the TGI in assay [7], in assay [8], in assay [9] and in assay [10] was greater than 100 µM each time.
